Columns and labels:
[1] = Growth inhibition of human RCC4 cells after 4 days by XTT assay; assay type: functional, cell-based; details: RCC4, 96 h
[2] = Growth inhibition of human RCC4/VHL cells after 4 days by XTT assay; assay type: functional, cell-based; details: 96 h
[3] = Selectivity ratio IC50 for human RCC4/VHL cells to IC50 for human RCC4 cells; assay type: functional

SMILES | IC50 ([1]; read-out: IC50) [µM] | IC50 ([1]; read-out: pIC50 (converted)) [µM] | IC50 [2] [µM] | Ratio IC50 [3]
Cc1cccc(Nc2nc(-c3ccnc(-c4cccc(F)n4)c3)cs2)c1 | > 40 | > 40 | > 40 | –
Cc1cccc(Nc2nc(-c3ccncc3)c(CN3CCOCC3)s2)c1 | – | 2.51 | – | –
CN(C)CCOc1ccc(Nc2nc(-c3ccncc3)cs2)cc1 | – | 60.3 | – | –
Cc1cccc(Nc2nc(-c3ccnc(N4CCN(C)CC4)c3)cs2)c1 | 11.5 | 11.7 | 31.6 | 2.8
CC(C)c1cccc(Nc2nc(-c3ccncc3)cs2)c1 | – | 17.4 | – | –
Cc1cccc(Nc2nc(-c3ccncc3)c(CN(C)C)s2)c1 | – | 16.2 | – | –
Cc1cccc(Nc2nc(-c3ccncc3-c3ccc(C(=O)N4CCN(C)CC4)cc3)cs2)c1 | 12.8 | 12.9 | > 40 | >3.1
Cc1cccc(Nc2nc(-c3ccncc3)c(C(=O)N(C)C)s2)c1 | – | 16.2 | – | –
Cc1cccc(N(C)c2nc(-c3ccncc3)cs2)c1 | – | 28.2 | – | –
Cc1cccc(Nc2nc(-c3c(C)nc4ccccn34)cs2)c1 | 9.5 | 9.55 | 29.8 | 3.1
Cc1cccc(Nc2nc(-c3ccncc3-c3cn(Cc4ccccc4)nn3)cs2)c1 | > 40 | 40.7 | > 40 | –
Cc1sc(Nc2ccc3c(c2)CCC3)nc1-c1ccncc1 | – | 12 | – | –
C#Cc1cc(-c2csc(Nc3cccc(C)c3)n2)ccn1 | – | 18.2 | – | –
Cc1ccc(Nc2nc(-c3ccncc3)cs2)cc1O | – | 12 | – | –
Cc1cccc(Nc2nc(-c3ccnc(-c4cn(Cc5ccccc5)nn4)c3)cs2)c1 | 2.1 | 2.14 | 14 | 6.7
Cc1cccc(Nc2nnc(-c3ccncc3)n2C)c1 | > 40 | 40.7 | > 40 | –
Cc1cccc(Nc2nc(-c3cnn4ccccc34)cs2)c1 | > 40 | 40.7 | 15.3 | <0.4
Cc1ccc(Nc2nc(-c3ccncc3)cs2)cc1 | – | 2.51 | – | –
Cc1cccc(Nc2nc(-c3ccnc4ccccc34)cs2)c1 | 12.3 | 12.3 | 20 | 1.6
Cc1cccc(Nc2nc(-c3cc(-c4ccccc4)nc4ccccc34)cs2)c1 | 25.4 | 25.7 | > 40 | >1.6
Cc1cccc(Nc2nc(-c3ccnc(OCCCN(C)C)c3)cs2)c1 | 6 | 6.03 | 8.8 | 1.5
Cc1cccc(Nc2nc(-c3cc(Cl)nc(Cl)c3)cs2)c1 | – | 15.1 | – | –
Fc1ccc(Nc2nc(-c3ccncc3)cs2)cc1 | – | 6.03 | – | –
Cc1cccc(Nc2nnc(-c3ccncc3)o2)c1 | > 40 | 40.7 | > 40 | –

SMILES | IC50 ([1]; read-out: IC50) [µM] | IC50 ([1]; read-out: pIC50 (converted)) [µM] | IC50 [2] [µM] | Ratio IC50 [3]
CN(C)CCc1ccc(Nc2nc(-c3ccncc3)cs2)cc1 | – | 50.1 | – | –
COc1ccccc1Nc1nc(-c2ccncc2)cs1 | – | 33.9 | – | –
Cc1cccc(Nc2nc(-c3ccnc(-c4cncnc4)c3)cs2)c1 | 26.4 | 26.9 | 37 | 1.4
Cc1cccc(Nc2nc(-c3ccncc3)c(CCCN3CCOCC3)s2)c1 | – | 5.89 | – | –
Cc1cc(C)cc(Nc2nc(-c3ccncc3)cs2)c1 | – | 4.57 | – | –
Clc1ccc(Nc2nc(-c3ccncc3)cs2)cc1Cl | – | 13.8 | – | –
Cc1cccc(Nc2nc(-c3ccncc3Cl)cs2)c1 | – | 2.95 | – | –
COc1ccc(Nc2nc(-c3ccncc3)cs2)cc1OC | – | 24.5 | – | –
OCCc1ccc(Nc2nc(-c3ccncc3)cs2)cc1 | – | 5.01 | – | –
Cc1cccc(Nc2nc(-c3ccncc3)c(C)s2)c1 | – | 10 | – | –
Oc1ccccc1Nc1nc(-c2ccncc2)cs1 | – | 12.9 | – | –
Cc1cccc(Nc2nc(-c3ccnc(F)c3)cs2)c1 | – | 4.57 | – | –
Cc1cccc(Nc2nc(-c3ccnc(Br)c3)cs2)c1 | – | 2.04 | – | –
Oc1ccc(Nc2nc(-c3ccncc3)cs2)cc1 | – | 5.37 | – | –
COc1ccc(Nc2nc(-c3ccncc3)cs2)cc1 | – | 14.1 | – | –
COc1cccc(Nc2nc(-c3ccncc3)cs2)c1 | – | 3.02 | – | –
CCN(c1cccc(C)c1)c1nc(-c2ccncc2)cs1 | – | 40.7 | – | –
Cc1cccc(Nc2nc(-c3ccncc3)c(C(N)=O)s2)c1 | – | 19.5 | – | –
Cc1cccc(Nc2nc(-c3ccncc3Br)cs2)c1 | – | 3.98 | – | –
Clc1cccc(Nc2nc(-c3ccncc3)cs2)c1 | – | 3.02 | – | –
Clc1ccccc1Nc1nc(-c2ccncc2)cs1 | – | 28.2 | – | –
Cc1cccc(Nc2nc(-c3ccncc3C)cs2)c1 | – | 5.25 | – | –
Cc1ccc(Nc2nc(-c3ccncc3)cs2)cc1C | – | 6.61 | – | –
